According to patent US20120270819A1, “USE OF COMPOUNDS WITH SGLT-1/SGLT-2 INHIBITOR ACTIVITY FOR PRODUCING MEDICAMENTS FOR TREATMENT OF BONE DISEASE” (SANOFI, priority 2009, published 2012):

Test system: female Sprague-Dawley mature and young adult rats
Test: Biomechanical testing: L3, L4 vertebral compression
Type: in vivo, rat
Conditions: for AUC (work to failure), percent difference from Vehicle Control / Apparent Strength, percent difference from Vehicle Control / Modulus, percent difference from Vehicle Control / Peak Load, percent difference from Vehicle Control / Stiffness, percent difference from Vehicle Control / Toughness, percent difference from Vehicle Control / Yield Load, percent difference from Vehicle Control / Yield Stress, percent difference from Vehicle Control / AUC (work to failure) / Apparent Strength / Modulus / Peak Load / Stiffness / Toughness / Yield Load / Yield Stress: L3 + L4 vertebral bodies; for AUC (work to failure) / Apparent Strength / Modulus / Peak Load / Stiffness / Toughness / Yield Load / Yield Stress: mean
Description: Biomechanical testing was performed using an 858 Mini Bionix Servohydraulic Test System, Model 242.03. All data was collected using TestWorks® version 3.8A for TestStar™ software, version 4.0C.
At necropsy, all specimens were cleaned of excess tissue (not scraped) and individually wrapped in gauze soaked with saline, covered with plastic film and placed in an appropriately labelled plastic bag. Bone samples were retained frozen (ca −20° C.) until subjected to the following biomechanical evaluations:
For compression testing, the vertebral body of the vertebrae was isolated by removing the vertebral arch and removing both inter-vertebral discs. The section obtained had two parallel cut surfaces and the trabecular bone exposed.
The L3 and L4 vertebral body were tested in compression to failure. The loading rate was set at 20 mm/min. Load and displacement data were collected and apparent strength and modulus were calculated using the peak load, stiffness, individual vertebral body height and cross sectional area from the pQCT scans. The work to failure was determined from the area under the curve (AUC) and toughness was calculated. Yield load was originally derived using a 0.2% off-set however a 0.1% off-set was considered more appropriate and yield stress was calculated. All data derived from the 0.2% off-set yield load was kept with the study file but not reported.

COc1ccc(Cc2c(OC3OC(CO)C(F)C(O)C3O)n[nH]c2C(F)(F)F)cc1 (centres unmarked) [Example 5 of formula II]
Strength parameters at the lumbar spine (50 mg/kg/day): positively affected | AUC (work to failure), percent difference from Vehicle Control (mature adults, 10 mg/kg/day): 3.5% | Apparent Strength, percent difference from Vehicle Control (mature adults, 10 mg/kg/day): 3.4% | Modulus, percent difference from Vehicle Control (mature adults, 10 mg/kg/day): −2.0% | Peak Load, percent difference from Vehicle Control (mature adults, 10 mg/kg/day): 6.0% | Stiffness, percent difference from Vehicle Control (mature adults, 10 mg/kg/day): 0.9% | Toughness, percent difference from Vehicle Control (mature adults, 10 mg/kg/day): 2.0% | Yield Load, percent difference from Vehicle Control (mature adults, 10 mg/kg/day): 4.3% | Yield Stress, percent difference from Vehicle Control (mature adults, 10 mg/kg/day): 2.1% | AUC (work to failure) (mature adults, 10 mg/kg/day): 21.5 N-mm | Apparent Strength (mature adults, 10 mg/kg/day): 48.3 MPa | Modulus (mature adults, 10 mg/kg/day): 2102.6 MPa | Peak Load (mature adults, 10 mg/kg/day): 375.5 N | Stiffness (mature adults, 10 mg/kg/day): 5308.6 N/mm | Toughness (mature adults, 10 mg/kg/day): 0.9 MPa | Yield Load (mature adults, 10 mg/kg/day): 329.3 N | Yield Stress (mature adults, 10 mg/kg/day): 42.5 MPa | AUC (work to failure), percent difference from Vehicle Control (mature adults, 50 mg/kg/day): 22.1% | Apparent Strength, percent difference from Vehicle Control (mature adults, 50 mg/kg/day): 14.1% | Modulus, percent difference from Vehicle Control (mature adults, 50 mg/kg/day): 2.5% | Peak Load, percent difference from Vehicle Control (mature adults, 50 mg/kg/day): 21.6% | Stiffness, percent difference from Vehicle Control (mature adults, 50 mg/kg/day): 17.8% | Toughness, percent difference from Vehicle Control (mature adults, 50 mg/kg/day): 20.6% | Yield Load, percent difference from Vehicle Control (mature adults, 50 mg/kg/day): 16.6% | Yield Stress, percent difference from Vehicle Control (mature adults, 50 mg/kg/day): 9.2% | AUC (work to failure) (mature adults, 50 mg/kg/day): 25.4 N-mm | Apparent Strength (mature adults, 50 mg/kg/day): 53.3 MPa | Modulus (mature adults, 50 mg/kg/day): 2197.6 MPa | Peak Load (mature adults, 50 mg/kg/day): 430.6 N | Stiffness (mature adults, 50 mg/kg/day): 6194.6 N/mm | Toughness (mature adults, 50 mg/kg/day): 1.1 MPa | Yield Load (mature adults, 50 mg/kg/day): 368.0 N | Yield Stress (mature adults, 50 mg/kg/day): 45.5 MPa | AUC (work to failure), percent difference from Vehicle Control (young adults, 10 mg/kg/day): −9.8% | Apparent Strength, percent difference from Vehicle Control (young adults, 10 mg/kg/day): 3.5% | Modulus, percent difference from Vehicle Control (young adults, 10 mg/kg/day): 19.2% | Peak Load, percent difference from Vehicle Control (young adults, 10 mg/kg/day): 5.2% | Stiffness, percent difference from Vehicle Control (young adults, 10 mg/kg/day): 12.0% | Toughness, percent difference from Vehicle Control (young adults, 10 mg/kg/day): −19.6% | Yield Load, percent difference from Vehicle Control (young adults, 10 mg/kg/day): 8.3% | Yield Stress, percent difference from Vehicle Control (young adults, 10 mg/kg/day): 6.1% | AUC (work to failure) (young adults, 10 mg/kg/day): 14.4 N-mm | Apparent Strength (young adults, 10 mg/kg/day): 34.4 MPa | Modulus (young adults, 10 mg/kg/day): 1559.1 MPa | Peak Load (young adults, 10 mg/kg/day): 255.9 N | Stiffness (young adults, 10 mg/kg/day): 4009.8 N/mm | Toughness (young adults, 10 mg/kg/day): 0.7 MPa | Yield Load (young adults, 10 mg/kg/day): 222.5 N | Yield Stress (young adults, 10 mg/kg/day): 29.9 MPa | AUC (work to failure), percent difference from Vehicle Control (young adults, 50 mg/kg/day): 2.1% | Apparent Strength, percent difference from Vehicle Control (young adults, 50 mg/kg/day): 16.4% | Modulus, percent difference from Vehicle Control (young adults, 50 mg/kg/day): 23.3% | Peak Load, percent difference from Vehicle Control (young adults, 50 mg/kg/day): 10.2% | Stiffness, percent difference from Vehicle Control (young adults, 50 mg/kg/day): 10.3% | Toughness, percent difference from Vehicle Control (young adults, 50 mg/kg/day): 1.5% | Yield Load, percent difference from Vehicle Control (young adults, 50 mg/kg/day): 9.7% | Yield Stress, percent difference from Vehicle Control (young adults, 50 mg/kg/day): 15.8% | AUC (work to failure) (young adults, 50 mg/kg/day): 16.3 N-mm | Apparent Strength (young adults, 50 mg/kg/day): 38.7 MPa | Modulus (young adults, 50 mg/kg/day): 1613.3 MPa | Peak Load (young adults, 50 mg/kg/day): 268.0 N | Stiffness (young adults, 50 mg/kg/day): 3951.0 N/mm | Toughness (young adults, 50 mg/kg/day): 0.9 MPa | Yield Load (young adults, 50 mg/kg/day): 225.4 N | Yield Stress (young adults, 50 mg/kg/day): 32.7 MPa
